This note sets out measurements from US11440880B2, “Thalidomide analogs and methods of use” (The USA, as represented by the Secretary, Department of …, priority 2015, dated 2022).

In series [1] the test system is nitrite levels in the culture media. The series can be described thus: Nitrite level (Griess Reagent System) in LPS-challenged RAW 264.7 cells. Type of series: cell-based, mouse. Set-up: key: NS=not significant; a “+” sign=anti-inflammatory or increased cell numbers; a “−” sign=cell toxicity or pro-inflammatory. Particulars: LPS 30 or 60 ng/mL, 24 h. The essentials: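 RAW 264.7 cells pretreated 1 h with compound in DMSO vehicle, then challenged with LPS (30 or 60 ng/mL) for 24 h at 37° C. Conditioned-media nitrite by Griess (520 nm, sodium nitrite standard curve, 1.5 μM cutoff) in μM; mouse TNF-α by ELISA as pg/ml or % change from control.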

A short description of series [2]: Maximum tolerated dose in SCID mice. Type of series: in vivo. Particulars: 3× per week; for deaths / drug-related toxicity / weight loss: 5 mg/kg and 10 mg/kg IV; for MTD: SCID, mouse, in vivo, IV, read-out: selected dose from the maximum tolerated dose study. The source says: (§1) Compounds 29 and 86 were selected for in vivo efficacy studies of human prostate cancer. Mice positive for the severe combined immune deficieny (SCID) spontaneous mutation Prkdc^scid are deficient in functional T cells and B cells, have reduced levels of gamma globulins and lymphopenia (low white blood cell count). Due to their comprised immune system, SCID mice are amenable to xenogeneic grafts. Before starting the efficacy study, a maximum tolerated dose was established for each compound. Compound administration was by tail vein injection (IV) with a 27-gauge needle. A volume of 100 uL per 25 g of body weight was injected for each compound and dose. Compounds 29 and 86 were formulated in 12% DMSO and 88% TPGS (tocopherol polyethylene glycol succinate) in distilled sterile water. This formulation was well tolerated in vehicle control mice. The maximum tolerated dose was defined as the highest dose at which 100% of animals could tolerate treatment with mild or no toxicity for a minimum of one week of treatment. Initially, each compound was administered 3× per week to five mice per group, at 5 and 10 mg/kg. Each dose level was monitored for at least one week. […] Animals were weighed daily during the treatment courses. […] The selected dose for further experimentation was therefore 10 mg/kg.

Series [3] has as its system PC3 cells (xenografted tumors). In words: PC3 xenograft efficacy in SCID mice. Type of series: in vivo. Particulars: 10 mg/kg; for tumor burden: day 0 to day 24.
Description: as §1
When the tumors of SCID mice xenografted with PC3 cells were palpable, mice were dosed with 10 mg/kg of compound 29 or compound 86, or given the vehicle alone. From day 0 to day 24, the tumor sizes in vehicle-treated animals increased by 301.33% (FIG. 15, tumor size=401.33%±35.98%).

In another series the test system is 59 cancer cell lines. The series can be described thus: One-dose anti-cancer screening in 59 cancer cell lines. Type of series: cell-based. The settings on record: 1×10^−5 M; with the exception of leukemic cell lines. The source says: As well as being immunomodulatory and anti-angiogenic, lenalidomide and pomalidomide are directly cytotoxic to cancer cells. […] Compounds 29 and 86 were screened at a concentration of 1×10^−5 M (FIGS. 11 and 12, respectively). Calculated values from 0-100 indicate growth inhibition relative to a no-drug control, and values less than 0 indicate lethality, relative to the number of cells at time zero. A value of 100 means no growth inhibition. A value of 40 means 60% growth inhibition. A value of 0 means no net growth over the course of the experiment. A value of −40 means 40% lethality. A value of −100 means all cells are dead.

The nature of series [4]: Precipitation of the IV formulation. Particulars: 20 mg/kg; 12% DMSO and 88% TPGS in distilled sterile water. Type of series: physicochemical.
Description: as §1

Series [5] has as its system human saphenous vein sections (microvessel outgrowth). The series can be described thus: Human saphenous vein assay of angiogenesis (ex vivo). The format is cell-based. The settings on record: for vessel outgrowth: 10 days of incubation; for inhibition of vessel outgrowth: in words. Here is the method: The saphenous vein was cleaned of subcutaneous tissue and embedded in Matrigel® matrix as previously described. After 10 days of incubation, the transverse sections of the veins were imaged. The outgrowth between the vehicle and no treatment (media) control was equivalent (106.65%±20.14, n=2 and 103.35%±4.06, n=2 respectively; FIGS. 13A and 13B).

Regarding `O=C1CCC(N2C(=O)c3cccc([N+](=O)[O-])c3C2=O)C(=O)N1` (stereo not drawn) [Compound 5], the Nitrite entry in series [1] (1 μM), in series [1] (10 μM), in series [1] (30 μM), in series [1] (60 μM) and in series [1] (100 μM) was “NS” each time.
Turning to `O=C1NC(=S)CCC1N1C(=O)c2cccc([N+](=O)[O-])c2C1=O` (stereo not drawn) [Compound 7, 2-(2-Oxo-6-thioxo-3-piperidinyl)-4-nitro-1H-isoindole-1,3(2H)-dione], the Nitrite result in series [1] (1 μM) is “NS”; in series [1] (10 μM), “NS”; in series [1] (30 μM), “+”; in series [1] (60 μM) it was “+”; in series [1] (100 μM), “+”.
`Nc1cccc2c1CN(C1CCC(=O)NC1=O)C2=S` (stereo not drawn) [Compound 29]: the “deaths / drug-related toxicity” value in series [2] is on record as “no animals died or needed to be euthanized due to drug-related toxicity”. Besides, in series [2], the weight loss result is “no significant weight loss”. In addition, the MTD in series [2] was 10 mg/kg. Moreover, the tumor burden entry in series [3] is “No reduction in tumor burden”. Further, the “activity on cell growth / cytotoxicity” value with 59 cancer cell lines was “very little activity”. Further, the “behaviour of the compound in the dosing solution” value in series [4] is recorded as “precipitate in the solution”. Moreover, the vessel outgrowth is on record as 155.12%±23.69 in series [5] (5 μM), 168.06%±14.87 in series [5] (10 μM), 102.38%±16.78 in series [5] (50 μM) and 62.53%±13.69 in series [5] (100 μM). In addition, the “inhibition of vessel outgrowth” value in series [5] (10 μM (FIGS. 13D, 13E)) is listed as “no inhibition”.
Take `Nc1cccc2c1CN(C13CC4CC(CC(C4)C1)C3)C2=O` [Compound 77, 2,3-Dihydro-4-amino-2-(tricyclo[3.3.1.1^3,7]dec-1-yl)-1H-isoindol-1-one]: the Nitrite result in series [1] (1 μM), in series [1] (10 μM) and in series [1] (30 μM) was “NS” each time.
For the compound `CC(N1Cc2c(N)cccc2C1=O)C12CC3CC(CC(C3)C1)C2` (stereo not drawn) [Compound 81], the Nitrite result in series [1] (1 μM) is listed as “NS”; in series [1] (10 μM), “NS”; in series [1] (30 μM), “+”.
Regarding `O=C1c2ccccc2CN1C12CC3CC(CC(O)(C3)C1)C2` [Compound 86, 2,3-Dihydro-2-(tricyclo[3.3.1.1^3,7]dec-1-hydroxy-3-yl)-1H-isoindol-1-one], the “deaths / drug-related toxicity” value in series [2] is reported as “no animals died or needed to be euthanized due to drug-related toxicity”. The weight loss entry in series [2] is recorded as “no significant weight loss”. The MTD in series [2] is 10 mg/kg. Further, the tumor burden entry in series [3] is on record as “No reduction in tumor burden”. Also, in series [3] (p=0.07), the “tumor size versus vehicle treated mice” value is “trend to separate”. For the same compound, the Nitrite result in series [1] (1 μM), in series [1] (10 μM) and in series [1] (30 μM) was “NS” throughout. In the series with 59 cancer cell lines, the “activity on cell growth / cytotoxicity” value was “very little activity”. Further, the “behaviour of the compound in the dosing solution” value in series [4] is “precipitate in the solution”. In addition, the “inhibition of vessel outgrowth” value is on record as “vastly reduced outgrowth” in series [5] (10 μM (FIGS. 13D, 13E)) and “inhibit outgrowth at all concentrations” in series [5] (all concentrations).
